Results taken from US9724537B2, “Abnormal electrical conduction blocking apparatus using photodynamic therapy (PDT)” (Keio University, priority 2006, dated 2017).
“And” between values parts separate entries of the source, which are not always exact repeats. Identical values can stand only once.

Legend:
[1] = system: cultured cardiac muscle cells derived from an SD rat; test: Changes in intracellular Ca^2+ concentration during PDT (Fluo-4AM); format: cell-based
Description: Intracellular Ca^2+ concentration changes in cells on day 1 after seeding were measured with the four protocols described later. Cultured cardiac muscle cells derived from an SD rat were used. As a medium for cell culture, D-MEM/F12+10% FBS was used. Before subjected to the experiment, cardiac muscle cells in suspension at 1.6×10^5 cells/ml were seeded on a 24-well plate with a glass bottom at 0.5 ml/well (8.0×10^4 cells/well) and cultured in an incubator (37° C., 5% CO2) for one day.
Further, MEM+10% FBS containing 2.2 mM Ca^2+ was used as a normal medium, and SMEM+10% FBS containing 364 μM Ca^2+ was used as a Ca^2+-free medium.
Intracellular Ca^2+ concentrations were measured using Fluo-4AM (Molecular Probe). 55 μl of DMSO (Dojindo Laboratories, pure solvent for fluorescence analysis) was added to 50 μg of Fluo-4AM, 10 μl of this mixture was added to 1 ml of a medium for measurement (normal medium or Ca^2+-free medium) at 8 μM, and cardiac muscle cells were brought into loading for 30 min. Fluo4 was excited with Ar laser (wavelength, 488 nm), and a fluorescence image at 510 to 560 nm was obtained with a CCD camera (Nippon Roper Co., Ltd., Retiga 2000R). 10 photos were taken with an exposure time of 10 s, and then PDT was performed by irradiation with a semiconductor laser beam (peak wavelength, 670.8 nm; power, 150 mW/cm^2; continuous light; total energy density, 5 or 10 J/cm^2), and a total of 40 photos (for approx. 408 s) were continuously taken during and after PDT. The image analysis was performed using Image J, an image analysis software, and changes in intracellular cumulative fluorescence on each slide were calculated. Assuming the initial cumulative fluorescence F0 as 1, fluorescence changes were calculated by F/F0. Further, cells were incubated at temperature of 37° C. using a hot plate (Tokai Hit) during observation.
Protocol 1 (Extracellular Distribution of Talaporfin Sodium, Extracellular Normal Ca^2+ Concentration)
Fluo-4AM (normal medium solution) is loaded with each well at room temperature for 30 min, then talaporfin sodium (normal medium) adjusted beforehand to various concentrations is added at 0.5 ml/well, and observation is performed immediately after addition.
Protocol 2 (Intracellular Distribution of Talaporfin Sodium, Extracellular Normal Ca^2+ Concentration)
Fluo-4AM (normal medium solution) is loaded with each well at room temperature for 30 min, then talaporfin sodium (normal medium) adjusted beforehand to various concentrations is added at 0.5 ml/well, and observation is performed after the medium is replaced with a normal medium after 30 min of loading.
Protocol 3 (Extracellular Distribution of Talaporfin Sodium, No Extracellular Ca^2+) […]

[2] = system: rat cardiac muscle cells in primary culture; test: PDT cell lethality (CCK-8) in cardiac muscle cells in primary culture; format: cell-based
Description: The relationship between the photosensitizer concentration and the cell lethality and the laser output required to induce a cell death were investigated using rat cardiac muscle cells in primary culture.
Cardiac muscle cells in primary culture were purchased from Cell Garage Co., Ltd. as an extract from the rat ventricular muscle. As a medium, D-MEM/F12+10% FBS was used.
Cardiac muscle cells in primary culture were purchased in suspension and seeded on a 96-well microplate. Cells were cultured at 37° C. under 5% CO2, and cells on days 3 and 7 of culture were used. The cardiac muscle cells in primary culture were pulsatile, and pulsations among cells were synchronizing.
Cardiac muscle cells in primary culture were adjusted to a density of 2.0×10^4 cells/well. As a photosensitizer talaporfin sodium was dissolved in a medium at various concentrations and added at a concentration of 0.1 ml/well. After 1 to 2 h of loading, laser irradiation was performed, and the medium was replaced after the completion of irradiation.
At this time, a 0.5-cm^2 irradiation field (=area of well) was irradiated with a continuous semiconductor laser beam (peak wavelength, 670.8 nm) under various conditions.
After laser irradiation, 0.01 ml of Cell Counting Kit-8 (Dojindo Laboratories, hereinafter referred to as CCK-8) was added to the medium in each well, the plate was incubated for 2 h, and the absorbance was measured to calculate the cell lethality. Six samples were examined
The experimental conditions were as follows.
(i) Cells on day 3 of culture
Used cells: cells on day 3 of culture
Agent concentrations: 5, 10, 15 μg/ml
Laser intensity: 150 mW/cm^2
Total energy density: 1, 2, 3, 5 J/cm^2
(ii) Cells on day 7 of culture
Used cells: cells on day 7 of culture
Agent concentrations: 20, 25, 30 μg/ml
Total energy density: 3 J/cm^2

## C=Cc1c(C)c2cc3nc(c(CC(=O)N[C@@H](CC(=O)O)C(=O)O)c4[nH]c(cc5nc(cc1[nH]2)C(C)=C5CC)c(C)c4C(=O)O)[C@@H](CCC(=O)O)[C@@H]3C [talaporfin sodium, mono-L-aspartyl chlorine 6]
[1]; FIG. 23
  cell morphology during and after PDT: 1) swelling of the cell itself and 2) growth of “bobble” were observed and Cell morphology did not virtually change after PDT
[1]; no extracellular Ca^2+, 30 μg/ml, 10 J/cm2
  change in intracellular Ca^2+ concentration during PDT: the intracellular Ca^2+ concentrations hardly changed
[1]; normal extracellular Ca^2+ concentration
  change in intracellular Ca^2+ concentration during PDT: Rapid increases in the intracellular Ca^2+ concentrations were observed immediately after performing PDT
[1]; normal extracellular Ca^2+, 0 min loading vs 30 min loading
  change in intracellular Ca^2+ concentration, photosensitizer outside vs inside the cell: rapid changes in the Ca^2+ concentration were confirmed when the photosensitizer exists only outside the cell
[2]; cells on day 3 of culture, 15 μg/ml
  cell lethality at 5 J/cm^2 vs 3 J/cm^2: the cell lethality decreased at the total energy density of laser irradiation of 5 J/cm^2 as compared with that at 3 J/cm^2
[2]; cells on day 3 of culture, high talaporfin sodium concentration, 1, 2, 3, 5 J/cm^2, FIG. 10
  cell lethality vs total energy density: the greater the total energy density of laser irradiation was, the higher cell lethality was
[2]; cells on day 7 of culture, 20, 25, 30 μg/ml, 3 J/cm^2, FIG. 11
  cell lethality, day 7 vs day 3 cells: the cell lethality was higher than when cells on day 3 of culture were used
